Measured values from patent US4652642A, “Azidobenzazepines” (SmithKline Beckman Corporation, priority 1984, dated 1987).

Key:
[1] = test system: α2 sites; experiment: competitive binding to α2 sites
[2] = biological target: T1, prejunctional alpha2 (α2-adrenoceptor) (Cavia porcellus, UniProt Q60474); experiment: prejunctional alpha2-antagonist activity, isolated superfused guinea pig left atrium (clonidine concentration-response shift); format: cell-based; details: clonidine as agonist, superfused with antagonist for thirty minutes, read-out: receptor dissociation constant of the antagonist (KB)
T1 construct: The left atrium is removed, dissected free of extraneous tissue and mounted in a 2 ml superfusion chamber; from tissue; host or cells: guinea pig (male) left atrium, sympathetic nerve endings
T1 sequence (Q60474 1-464): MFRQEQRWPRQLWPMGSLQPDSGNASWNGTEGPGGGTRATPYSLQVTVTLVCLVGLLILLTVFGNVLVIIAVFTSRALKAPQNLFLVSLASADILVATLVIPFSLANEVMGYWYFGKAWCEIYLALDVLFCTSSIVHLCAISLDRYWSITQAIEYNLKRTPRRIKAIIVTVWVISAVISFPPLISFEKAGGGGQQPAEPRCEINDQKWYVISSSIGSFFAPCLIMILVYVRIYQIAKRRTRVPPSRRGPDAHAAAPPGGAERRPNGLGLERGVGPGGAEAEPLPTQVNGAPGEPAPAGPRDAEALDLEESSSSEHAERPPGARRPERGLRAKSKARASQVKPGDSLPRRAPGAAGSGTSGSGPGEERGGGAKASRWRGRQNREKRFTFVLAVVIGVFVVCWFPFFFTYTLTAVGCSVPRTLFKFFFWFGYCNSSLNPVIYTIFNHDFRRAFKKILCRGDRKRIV
Method: Briefly, the heart is removed from a pentobarbital-anesthetized male guinea pig. The left atrium is removed, dissected free of extraneous tissue and mounted in a 2 ml superfusion chamber. The tissue is paced at 60 pulse/minute and the sympathetic nerves excited at 6 minute intervals by field stimulation. The response to nerve stimulation is measured as the difference in contractile force between the basal contraction and peak contraction following a nerve stimulation. A concentration-response curve for clonidine (a known alpha2 -agonist) is prepared by administering increasing concentrations of clonidine following each successive stimulation. The tissue is, then, superfused with the alpha2 -antagonist to be tested for thirty minutes and the clonidine concentration-effect curve is repeated in the presence of antagonist. The receptor dissociation constant of the antagonist (KB) is defined as the antagonist concentration required to shift the log concentration-response curve of the agonist to the right by a factor of 2.
Pharmacol. 309 217-224 (1979). The preferred species of this invention, i.e. the 9-azido-3-methyl-6-chloro compound, has a KB value of 158 nM in the atrium test.

[3] = test system: α2 sites; experiment: photolytic inactivation of α2 binding on ultraviolet irradiation
[4] = test system: α2 sites; experiment: protection against photolytic deactivation by concomitant adrenoceptor agents; format: binding; details: concomitant with the 9-azido-3-methyl-6-chloro compound, ultraviolet light

CN1CCc2c(Cl)ccc(N=[N+]=[N-])c2CC1 [9-azido-3-methyl-6-chloro compound, 9-azido-6-chloro-3-methyl-2,3,4,5-tetrahydro-1H-3-benzazepine]
mode of binding to α2 sites ([1]; without irradiation): bind competitively | Ki ([1]; α2 sites): 42 nM | Kb [2]: 158 nM | binding effect when irradiated with ultraviolet light [3]: the binding effect is made irreversible | dependence of photolytic inactivation ([3]; irradiated with ultraviolet light): concentration and time dependent

COc1cc2nc(N3CCN(C(=O)c4ccco4)CC3)nc(N)c2cc1OC [Prazosin]
effect of concomitant presence on photolytic deactivation [4]: no effect

Nc1cc(Cl)c(NC2=NCCN2)c(Cl)c1 [p-aminoclonidine]
effect of concomitant presence on photolytic deactivation [4]: complete protection

Cc1ccc(N(CC2=NCCN2)c2cccc(O)c2)cc1 [phentolamine]
effect of concomitant presence on photolytic deactivation [4]: partially blocks the photolytic deactivation
